Assay results from PubChem BioAssay (NCI).
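Following 48 hours of exposure in 96-well plates, responses at five concentrations were used to interpolate endpoints linearly. GI50 = concentration required for 50% inhibition of growth. At the TGI there is no net growth.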 Where a SMILES comes first, the peptide text is derived from it. Side-chain parts run from the residue outwards. The star is where a group is joined. Cbz = O=C(OCc1ccccc1)*; Boc = CC(C)(C)OC(=O)*

What was measured:
Experiment in all cases: growth of human tumour cells (NCI), 48 h
786-0 renal = system: 786-0 renal
CCRF-CEM leukemia = system: CCRF-CEM leukemia
HCC-2998 colon = system: HCC-2998 colon
NCI-H460 lung = system: NCI-H460 lung
OVCAR-3 ovarian = system: OVCAR-3 ovarian
SK-MEL-28 melanoma = system: SK-MEL-28 melanoma
SNB-19 CNS = system: SNB-19 CNS
SNB-75 CNS = system: SNB-75 CNS
UO-31 renal = system: UO-31 renal

Row | Structure (SMILES) | TGI (786-0 renal) | TGI (CCRF-CEM leukemia) | TGI (HCC-2998 colon) | TGI (NCI-H460 lung) | TGI (OVCAR-3 ovarian) | TGI (SK-MEL-28 melanoma) | TGI (SNB-19 CNS) | TGI (SNB-75 CNS) | TGI (UO-31 renal) | GI50 (OVCAR-3 ovarian)
1 | Cc1cc(NS(=O)(=O)c2ccc(NC(=O)c3cccc4c(NNc5ccc(S(N)(=O)=O)cc5)c5ccccc5nc34)cc2)no1 | > 100 µM | 66.2 µM | 92.9 µM | > 100 µM | 71.1 µM | 89 µM | > 100 µM | 96.6 µM | > 100 µM | 
2 | CN(C)C(=S)/N=c1\ssc(=S)n1Cc1ccccn1 | 29.1 µM | > 26.2 µM | > 100 µM | 16.8 µM | 11.3 µM | > 100 µM | > 100 µM | > 56.6 µM | > 100 µM | 
3 | COC(=O)C(C(=O)C(=O)Nc1ccc(C)cc1C)c1nc2ccc([N+](=O)[O-])cc2[nH]c1=O (stereo not given) | > 100 µM | > 100 µM |  | > 100 µM |  | > 100 µM | > 100 µM | > 100 µM | > 100 µM | 
4 | CCc1c(-c2coc(CC/C(C)=C/c3ccccc3)n2)oc(OC)c(C)c1=O | > 55.4 µM | > 100 µM | > 100 µM | > 100 µM | > 100 µM | > 100 µM | > 86.3 µM | > 100 µM | > 53.1 µM | 
5 | CNc1nc(=O)c(C#N)c(-c2ccc(C)cc2)s1 | > 100 µM | > 100 µM | > 100 µM | > 100 µM | > 100 µM | > 100 µM | > 100 µM | > 100 µM | > 100 µM | 
6 | N=C(N)Cn1cnc2ccccc21 | > 100 µM | > 100 µM | > 100 µM | > 100 µM | > 100 µM | > 100 µM | > 100 µM | > 100 µM | > 100 µM | 
7 | C=CC[C@@]1(C#N)C[C@H](C[C@]2(C#N)C[C@H](CCl)OC(C)(C)O2)OC(C)(C)O1 | > 100 µM | > 100 µM | > 100 µM | > 100 µM | > 100 µM | > 100 µM | > 100 µM | > 100 µM | > 100 µM | 
8 | O=c1cc(-c2ccc[nH]2)[nH]c2cc3c(cc12)OCO3 | > 100 µM | > 100 µM | 86.5 µM | > 100 µM | > 100 µM | > 100 µM | > 100 µM | 68.9 µM | > 100 µM | 30.8 µM
9 | CC1(C)CC(=O)C2=C(C1)N(c1ccccc1)C1(O)C=CC(=O)C3=C(O)c4ccccc4C(=O)C321 (stereo not given) | > 100 µM | > 100 µM | 78.2 µM | 83.9 µM | > 100 µM | 39.3 µM | 54.5 µM | 48.6 µM | 47 µM | 
10 | [N-]=[N+]=NC(c1cn(C2CC(O)C(CO)O2)c(=O)[nH]c1=O)C(I)I (stereo not given) | > 100 µM | > 100 µM | > 100 µM | > 100 µM | > 100 µM | > 100 µM | > 100 µM |  | > 100 µM | 
11 | CCCCCCCCCCCCCCCCCCNC(=S)/N=C/c1c(O)cc(C)oc1=O | > 100 µM |  | 39 µM | > 100 µM | > 100 µM | > 100 µM | 52.1 µM | 49.3 µM | 39.4 µM | 
12 | CC(C)CC(NC(=O)OCc1ccccc1)C(=O)NCCCCC(NC(=O)C(CCCCNC(=O)C(CC(C)C)NC(=O)OCc1ccccc1)NC(=O)C(CCCCNC(=O)C(CC(C)C)NC(=O)OCc1ccccc1)NC(=O)C(CCCCNC(=O)C(CC(C)C)NC(=O)OCc1ccccc1)NC(=O)OC(C)(C)C)C(=O)O (stereo not given) (Boc-K([Leu-Cbz])K([Leu-Cbz])K([Leu-Cbz])K([Leu-Cbz])-OH; configuration not given here) | > 25 µM | > 25 µM | > 25 µM | > 25 µM | > 25 µM | > 25 µM | > 25 µM | > 25 µM | > 25 µM | 
13 | Cc1ccc(C(=O)NC(C)C)cc1N=NN(C)C | > 100 µM |  | > 100 µM | > 100 µM | > 100 µM | > 100 µM | > 100 µM |  | > 100 µM | 
14 | CCOC(=O)CC(=Nc1cc(C)on1)N(CC)CC | > 100 µM | > 100 µM |  | > 100 µM | > 100 µM | > 100 µM | > 100 µM | > 100 µM | > 100 µM | 
15 | Cc1cc(C)c(N)c(C)c1N | > 100 µM | > 100 µM | > 100 µM | > 100 µM | > 100 µM | > 100 µM | > 100 µM |  | > 100 µM | 
16 | CC(C)(CO)NC(=O)c1cccc(C(=O)NC(C)(C)CO)c1Br | > 100 µM |  | > 100 µM | > 100 µM |  | > 100 µM | > 100 µM | > 100 µM | > 100 µM | 
17 | CC[S+](C)c1ccc(-c2c3nc(c(-c4ccc([S+](C)CC)cc4)c4ccc([nH]4)c(-c4ccc([S+](C)CC)cc4)c4nc(c(-c5ccc([S+](C)CC)cc5)c5ccc2[nH]5)C=C4)C=C3)cc1 (stereo not given) | > 100 µM | > 100 µM |  | > 100 µM | > 100 µM | > 100 µM | > 100 µM | > 100 µM |  | 
18 | COc1ccc2c(c1)Cc1c-2[nH]c2cc3c(cc2c1=O)OCO3 | > 100 µM | 39.1 µM | 51 µM | 35 µM | 45.9 µM | 53.8 µM | > 100 µM |  | 89 µM | 
